Test results published in ChEMBL document CHEMBL4393660, “New pyrazole derivatives: Synthesis, anti-inflammatory activity, cycloxygenase inhibition assay and evaluation of mPGES” (Eur J Med Chem, 2019).
The source made the active and inactive calls. The calls are words filed in the database; no cut-off is given here.

Assays:
[1] = target: Prostaglandin G/H synthase 1 (Homo sapiens, UniProt P23219); assay: (§1) Inhibition of human recombinant COX1 assessed as reduction in PGF2alpha formation using arachidonic acid as substrate preincubated with enzyme for 10 mins followed by substrate addition for 30 secs and measured after 1 hr by microplate reader based enzyme immunoassay
Sequence of Prostaglandin G/H synthase 1 (P23219 whole entry): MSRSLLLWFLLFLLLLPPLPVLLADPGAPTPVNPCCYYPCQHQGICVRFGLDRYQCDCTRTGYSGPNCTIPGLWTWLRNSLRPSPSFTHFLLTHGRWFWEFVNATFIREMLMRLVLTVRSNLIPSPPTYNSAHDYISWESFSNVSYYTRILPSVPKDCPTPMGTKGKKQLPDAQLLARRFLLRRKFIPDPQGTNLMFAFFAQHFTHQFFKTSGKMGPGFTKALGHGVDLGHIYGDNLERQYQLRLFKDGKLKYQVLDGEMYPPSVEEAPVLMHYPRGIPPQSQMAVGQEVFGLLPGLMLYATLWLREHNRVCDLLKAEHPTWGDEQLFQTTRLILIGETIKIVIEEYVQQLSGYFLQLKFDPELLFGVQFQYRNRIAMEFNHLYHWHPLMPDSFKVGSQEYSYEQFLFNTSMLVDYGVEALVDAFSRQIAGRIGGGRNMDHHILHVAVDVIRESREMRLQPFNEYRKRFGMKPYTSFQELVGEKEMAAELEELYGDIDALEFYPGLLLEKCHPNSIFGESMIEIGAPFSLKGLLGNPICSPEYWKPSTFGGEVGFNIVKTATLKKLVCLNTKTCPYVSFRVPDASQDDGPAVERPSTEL

Homo sapiens = organism: Homo sapiens; assay: as §1, with “Selectivity index, ratio” for “Inhibition”, “of IC50 for” for “of”, “COX1 to IC50 for human recombinant COX-2” for “COX1”
[2] = target: T1, Prostaglandin G/H synthase 2 (Homo sapiens, UniProt P35354); assay: Inhibition of human recombinant COX-2 assessed as reduction in PGF2alpha formation using arachidonic acid as substrate preincubated with enzyme for 10 mins followed by substrate addition for 30 secs and measured after 1 hr by microplate reader based enzyme immunoassay
T1 sequence (P35354 whole entry): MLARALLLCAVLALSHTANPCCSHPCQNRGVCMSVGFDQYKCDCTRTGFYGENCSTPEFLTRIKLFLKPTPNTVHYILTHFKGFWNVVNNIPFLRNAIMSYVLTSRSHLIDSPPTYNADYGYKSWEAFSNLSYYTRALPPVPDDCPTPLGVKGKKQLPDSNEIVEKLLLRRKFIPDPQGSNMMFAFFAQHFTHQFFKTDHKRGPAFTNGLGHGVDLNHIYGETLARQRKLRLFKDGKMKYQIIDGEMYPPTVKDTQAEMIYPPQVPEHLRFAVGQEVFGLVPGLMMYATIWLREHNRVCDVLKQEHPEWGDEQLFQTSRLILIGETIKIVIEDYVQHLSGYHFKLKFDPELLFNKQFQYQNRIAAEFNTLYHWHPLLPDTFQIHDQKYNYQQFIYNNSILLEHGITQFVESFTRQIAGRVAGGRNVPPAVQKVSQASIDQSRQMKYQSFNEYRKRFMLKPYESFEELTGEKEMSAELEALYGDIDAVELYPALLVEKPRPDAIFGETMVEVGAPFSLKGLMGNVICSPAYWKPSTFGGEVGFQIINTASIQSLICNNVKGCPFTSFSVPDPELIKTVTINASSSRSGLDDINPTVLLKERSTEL

Rattus norvegicus [3] = assay: Anti-inflammatory activity against carrageenan-induced albino rat paw edema model assessed as inhibition of microsomal PGE2 synthase expression in plasma at 10 umol/kg, sc treated 1 hr prior to carrageenan challenge measured after 2 hrs by microplate reader based monoclonal sandwich ELISA assay; type: functional
Rattus norvegicus [4] = assay: (§2) Anti-inflammatory activity against carrageenan-induced albino rat paw edema model assessed as inhibition of carrageenan-induced right hind paw edema at 10 umol/kg, sc treated 1 hr prior to carrageenan challenge and measured at 1 hr after carrageenan treatment by plethysmometer relative to control; type: functional
Rattus norvegicus [5] = assay: Anti-inflammatory activity against carrageenan-induced albino rat paw edema model assessed as inhibition of PGE2 production in plasma at 10 umol/kg, sc treated 1 hr prior to carrageenan challenge measured after 2 hrs by microplate reader based enzyme immunoassay relative to control; type: functional
Rattus norvegicus [6] = assay: Anti-inflammatory activity against carrageenan-induced albino rat paw edema model assessed as inhibition of carrageenan-induced right hind paw edema at 10 umol/kg, sc treated 1 hr prior to carrageenan challenge and measured at 2 hrs after carrageenan treatment by plethysmometer relative to control; type: functional
Rattus norvegicus [7] = assay: Anti-inflammatory activity against carrageenan-induced albino rat paw edema model assessed as inhibition of carrageenan-induced right hind paw edema at 10 umol/kg, sc treated 1 hr prior to carrageenan challenge and measured at 6 hrs after carrageenan treatment by plethysmometer relative to control; type: functional
Rattus norvegicus [8] = assay: as §2, with “immediately” for “at 1 hr”; type: functional
Rattus norvegicus [9] = assay: Anti-inflammatory activity against carrageenan-induced albino rat paw edema model assessed as inhibition of carrageenan-induced right hind paw edema at 10 umol/kg, sc treated 1 hr prior to carrageenan challenge and measured at 3 hrs after carrageenan treatment by plethysmometer relative to control; type: functional
[10] = Toxicity in carrageenan-induced albino rat paw edema model assessed as Inhibition of cytosolic PGE2 synthase expression in plasma at 10 umol/kg, sc treated 1 hr prior to carrageenan challenge measured after 2 hrs by microplate reader based monoclonal sandwich ELISA assay; type: organism-based; details: in vivo
Rattus norvegicus [11] = assay: Ratio of inhibition of microsomal PGE2 synthase expression to inhibition of cytosolic PGE2 synthase expression in plasma of carrageenan-induced albino rat paw edema model at 10 umol/kg, sc treated 1 hr prior to carrageenan challenge measured after 2 hrs by microplate reader based monoclonal sandwich ELISA assay

| SMILES | IC50 [1] [µM] | Ratio IC50 (Homo sapiens) | IC50 [2] [µM] | inhibition in vivo at 10 µmol/kg (Rattus norvegicus [3]) [%] | inhibition in vivo at 10 µmol/kg (Rattus norvegicus [4]) [%] | inhibition in vivo at 10 µmol/kg (Rattus norvegicus [5]) [%] | inhibition in vivo at 10 µmol/kg (Rattus norvegicus [6]) [%] | inhibition in vivo at 10 µmol/kg (Rattus norvegicus [7]) [%] | inhibition (Rattus norvegicus [8]) | inhibition in vivo at 10 µmol/kg (Rattus norvegicus [9]) [%] | inhibition (INH) [10] [%] | fold change (FC) (Rattus norvegicus [11]) | inhibition in vivo at 10 µmol/kg (Rattus norvegicus [8]) [%] | inhibition (Rattus norvegicus [4]) |
| --- | --- | --- | --- | --- | --- | --- | --- | --- | --- | --- | --- | --- | --- | --- |
| N#Cc1cnn(-c2ccc(S(N)(=O)=O)cc2)c1/N=C/c1ccc(Cl)cc1 | 0.169 | 0.89 | 0.19 |  |  |  |  |  |  |  |  |  |  |  |
| N#Cc1cnn(-c2ccc(S(N)(=O)=O)cc2)c1NC(=O)CCN1CCOCC1 | 0.876 | 22.2 | 0.0394 | 74.1 | 2.04 | 76.2 | 27.5 | 44 | inactive | 39.5 | 44.43 | 1.5 |  |  |
| N#Cc1cnn(-c2ccc(S(N)(=O)=O)cc2)c1/N=C/c1ccc(F)cc1 | 0.677 | 17.5 | 0.0387 | 74.7 | 1.85 | 73.9 | 7.94 | 43 | inactive | 36.7 | 48.52 |  |  |  |
| Cc1ccc(-c2cc(C(F)(F)F)nn2-c2ccc(S(N)(=O)=O)cc2)cc1 [CELECOXIB] |  |  |  | 80 | 11.1 | 69.6 | 8.99 | 42.6 |  | 35 | 51.11 |  | 6.06 |  |
| CC(Cl)C(=O)Nc1c(C#N)cnn1-c1ccc(S(N)(=O)=O)cc1 (configuration not stated) | 0.507 | 4.67 | 0.108 |  |  |  |  |  |  |  |  |  |  |  |
| N#Cc1cnn(-c2ccc(S(N)(=O)=O)cc2)c1/N=C/c1ccc(Br)cc1 | 0.116 | 1.78 | 0.0649 |  |  |  |  |  |  |  |  |  |  |  |
| N#Cc1cnn(-c2ccc(S(N)(=O)=O)cc2)c1NC(=O)CCl | 0.104 | 5.24 | 0.0199 | 80.7 | 16.7 | 67.5 | 26.5 | 46 |  | 40.1 | 31.55 | 2.5 | 13.6 |  |
| COc1ccc(/C=N/c2c(C#N)cnn2-c2ccc(S(N)(=O)=O)cc2)cc1OC | 0.163 | 3.72 | 0.0437 |  |  |  |  |  |  |  |  |  |  |  |
| N#Cc1cnn(-c2ccc(S(N)(=O)=O)cc2)c1NC(=O)CN1CCOCC1 | 0.0647 | 1.89 | 0.0342 |  |  |  |  |  |  |  |  |  |  |  |
| N#Cc1cnn(-c2ccc(S(N)(=O)=O)cc2)c1NC(=O)c1ccccc1 | 0.0733 | 1.3 | 0.0562 |  |  |  |  |  |  |  |  |  |  |  |
| COc1ccc(/C=N/c2c(C#N)cnn2-c2ccc(S(N)(=O)=O)cc2)cc1 | 0.513 | 13.1 | 0.0391 | 80.3 |  | 64.4 | 5.29 | 42.3 | inactive | 33.6 | 52.43 |  |  | inactive |
| N#Cc1cnn(-c2ccc(S(N)(=O)=O)cc2)c1NC(=O)CCCl | 0.123 | 2.12 | 0.058 |  |  |  |  |  |  |  |  |  |  |  |
| CC(C(=O)Nc1c(C#N)cnn1-c1ccc(S(N)(=O)=O)cc1)N1CCOCC1 (configuration not stated) | 0.161 | 1.31 | 0.123 |  |  |  |  |  |  |  |  |  |  |  |
| N#Cc1cnn(-c2ccc(S(N)(=O)=O)cc2)c1/N=C/c1ccccc1 | 0.205 | 2.46 | 0.083 |  |  |  |  |  |  |  |  |  |  |  |
| CC(=O)Nc1c(C#N)cnn1-c1ccc(S(=O)(=O)NC(C)=O)cc1 | 0.879 | 14.3 | 0.0612 | 80 | 9.26 | 65.3 | 17.5 | 44.3 |  | 35 | 31.08 |  | 0 |  |
